Measured values as given in ChEMBL document CHEMBL3507680, “University of Dundee, Gates Library screen for HepG2 cell viability”.

assay: Human HepG2 cell viability assay in 384 well format; assay type: toxicity, cell-based; set-up: dose 125 nL, time 70.5 hour; concentration not given beside the values; conditions: HepG2 cells, read-out: Inhibition

Row | SMILES | cytotoxicity at 70.5 h
1 | Cc1ccc(CNC2(Cc3cc(C(C)(C)O)on3)COC2)o1 | -5.2%
2 | CCCN(Cc1cccnc1)C(=O)C1CCS(=O)(=O)CC1 | 6.55%
3 | COc1cc(N2CC3(CCN(S(C)(=O)=O)C3)C2)ncn1 | -12%
4 | CN1CCCN(C(=O)c2ccn3ccnc3c2)CC1 | 6.21%
5 | COCCN1CCC2(CCC(=O)N2Cc2csc(C)n2)CC1 | -7.09%
6 | CCn1ccnc1CN1CCCC(CO)(Cc2cccc(Cl)c2)C1 (centres undefined) | -1.73%
7 | Cc1cc(C(=O)N2CCOC(c3ccc(Cl)c(Cl)c3)C2)[nH]n1 (centres undefined) | -8.67%
8 | COC(=O)c1ccc(CNCc2cn(C)nc2C)cc1 | 1.28%
9 | CCCS(=O)(=O)N1C[C@H]2C[C@H](C(=O)N3CCN(C)CC3)[C@@H](C1)O2 | 4.46%
10 | CCN1CC[C@@]2(C(=O)N3CCOCC3)CCN(S(=O)(=O)CC)CC[C@@H]12 | 3.2%
11 | COc1c(CNC2CCCOc3ccccc32)c(C)nn1C (centres undefined) | -9.23%
12 | CC(C)c1cc(C(=O)NCCc2nc3c(s2)CCC3)n(C)n1 | 8.71%
13 | Cn1ccc(C(=O)N2CCC[C@]3(C[C@@H](OCc4ccccn4)CO3)C2)n1 | -12.2%
14 | O=C(N[C@@H]1CN(Cc2cccc(F)c2)C[C@H]1O)c1cscn1 | -4.57%
15 | CS(=O)(=O)c1ccc(C(=O)NCCNc2ncccn2)cc1 | -12.6%
16 | COc1cc(OC)cc(N2CCC(NCc3cccs3)C2=O)c1 (centres undefined) | -0.0615%
17 | CCS(=O)(=O)NCCCNc1ncnc2cc(F)c(F)cc12 | -0.956%
18 | COCC(=O)N1CCC2(CC1)CC(COC)N(c1ncccn1)C2 (centres undefined) | -5.32%
19 | O=C(Nc1cccc(OCC(F)F)n1)c1ccncc1F | -6.41%
20 | CCCc1nnc(NC(=O)N2CCCC2c2ccncc2)s1 (centres undefined) | 18.5%
21 | COCc1nn(CC2CC2)c2c1CN(Cc1ccco1)CC2 | -8.39%
22 | Cn1nc(CNC(=O)c2cccc(C(F)(F)F)c2)c2c1CCOC2 | -3.96%
23 | Cc1cc(C(=O)N(C)CCN(C)C(=O)OC(C)(C)C)oc1C | -2.24%

Row | SMILES | cytotoxicity at 70.5 h
24 | COc1ccccc1C1(CNCc2ccc([S+](C)[O-])cc2)CC1 (centres undefined) | -6.54%
25 | CN(Cc1ccon1)CC1CCOc2ccccc2C1 (centres undefined) | -8.84%
26 | Cc1cccc(N2CCN(C(=O)NC(C)c3nncn3C)CC2)c1 (centres undefined) | 20.1%
27 | COc1ccnc(NC(=O)c2cscc2C)c1 | -2.28%
28 | O=C(Cc1noc2ccccc12)N1CCCC1c1noc(C2CC2)n1 (centres undefined) | 32.1%
29 | Cc1ncsc1CCN(C)C(=O)CN1CC2(CCNCC2)OC1=O | 17.2%
30 | COC1CCCN(Cc2nc(Cc3ccccc3F)no2)C1 (centres undefined) | -5.83%
31 | Cc1occc1C(=O)N1C[C@@H](C(=O)N2CCCCO2)C[C@H]2OCC[C@H]21 | -7.27%
32 | CCN(CC)C(=O)CN(C)C(=O)c1cc(-c2cccc(Cl)c2)no1 | -15.3%
33 | CN(c1nc(Cn2cnccc2=O)cs1)C1CC1 | -4.18%
34 | NCc1cnn(-c2ccccc2C(=O)NCCc2ccccn2)c1 | -6.02%
35 | Cn1cnc(S(=O)(=O)N2C[C@@H]3CC[C@H](C2)N(Cc2ccccn2)C3)c1 | -7.24%
36 | CN(C)c1cc2c(nn1)CCN(C(=O)c1cc3ccccc3[nH]c1=O)C2 | -15.9%
37 | COc1cc2nc(C)n(CC(=O)NCCO)c(=O)c2cc1OC | -8.13%
38 | CC(C)NC(=O)C1CCc2nnc(C(C)(C)C)n21 (centres undefined) | -5.68%
39 | COc1ccc(CC(=O)NC(CC(=O)O)c2ccc(F)cc2)cc1OC (centres undefined) | -5.71%
40 | CNC(=O)C1CCCCN1C(=O)c1csc(-c2ccc(C)cc2)n1 (centres undefined) | -9.54%
41 | CCCS(=O)(=O)N1Cc2nccn2CC(Cn2cccn2)C1 (centres undefined) | -2.32%
42 | Cc1ccc(CN2CC[C@H]3[C@H]2CC(=O)N3c2ccsc2)o1 | 5.86%
43 | COCCN(Cc1ccoc1)C(=O)c1ccccn1 | -3.55%
44 | O=C(COc1cccc(Cl)c1)N1CCOCC1c1ncon1 (centres undefined) | 13.9%
45 | Cc1nn(C)cc1-c1cc(C(=O)N2CCc3ncc(Cl)cc3C2)no1 | 0.792%
46 | CCOC(C(=O)N1CCn2c(nnc2C(C)C)C1)c1ccccc1 (centres undefined) | 19.3%

Row | SMILES | cytotoxicity at 70.5 h
47 | CCCn1cc(C(=O)n2nc(C)cc2C)c(S(=O)(=O)N2CCSCC2)n1 | -7.23%
48 | O=C(c1ccsc1)N1C[C@@H]2C[C@@H](c3nnc(C4CC4)o3)O[C@@H]2C1 | -8.35%
49 | CCc1nc(C)sc1CN1CC[C@@](O)(CCOC)[C@H](C)C1 | -5.48%
50 | c1cnn(CCNCc2cnc(N3CCCC3)nc2)c1 | -9.32%
51 | COc1cccc(S(=O)(=O)N2CCOC(C)(C(N)=O)C2)c1 (centres undefined) | -3.76%
52 | CCCn1nc(C(=O)NC2(c3ccc(Cl)cc3)CCCC2)ccc1=O | -7.76%
53 | Cc1nc(CNC(=O)c2cc(COc3ccccc3F)[nH]n2)n[nH]1 | 17.2%
54 | Cc1cnc(CNC(=O)CC2CCc3ccccc32)cn1 (centres undefined) | -13.9%
55 | CCCC(NC(=O)c1cscc1C)c1nnn[nH]1 (centres undefined) | -2.41%
56 | CCn1cc(C(=O)Nc2ccccc2C(=O)OC)cn1 | 13.1%
57 | CCS(=O)(=O)N1CCC(c2nc(C)c(C)c(N3CCCC3)n2)CC1 | 2.09%
58 | CCn1cc(-c2n[nH]c(=O)n2-c2ccc(OC)c(OC)c2)c(C)n1 | -4.02%
59 | COCC1CCN(C(C(=O)O)c2c(F)cccc2OC(C)C)CC1 (centres undefined) | -6.42%
60 | Cc1nc(CNC(=O)CCCc2cccs2)no1 | -5.14%
61 | O=C(c1ccccn1)N(CCO)Cc1cc(Br)ccc1F | 17.2%
62 | Cc1cc(C)n(CCCN(C)c2cc(C3CC3)ncn2)n1 | -7.51%
63 | Fc1cnc(N2CCC3(CC2)CN(Cc2cccs2)CCO3)nc1 | -6.3%
64 | O=C(NCC(O)CO)Nc1cc(Br)ccc1F (centres undefined) | -1.48%
65 | CCCOCCN1CCC2(CC1)CC(c1ccccc1)C(=O)N2C (centres undefined) | 25.1%
66 | CCn1cc(NC(=O)C2CCN(CC(=O)N3CCOCC3)CC2)cn1 | -19%
67 | CC(C)CCN(C)Cn1ncc2cn(-c3ccccc3)nc2c1=O | 14.5%
68 | O=C1Nc2ccccc2CC12CCCN2Cc1ccc(F)cc1 (centres undefined) | 9.33%
69 | CCC(O)CN1CCN(C(=O)c2cnn(-c3ccccc3F)c2)CC1 (centres undefined) | 2.94%

Row | SMILES | cytotoxicity at 70.5 h
70 | OCc1nnn2c1CN(Cc1cccnc1)CCC2 | -115%
71 | Cc1nn(C)c(Cl)c1C1CCCN1C(=O)c1ccc(N(C)C)nn1 (centres undefined) | -12.9%
72 | CC(=O)N1CCN(c2cc(C3CCNCC3)ccn2)CC1 | -1.18%
73 | O=C(C1CC=CC1)N1C[C@H]2CN(Cc3ccncc3)C(=O)[C@H]2C1 | 2.42%
74 | CC(C)Cc1nc(CN2CCOC(Cn3cccn3)C2)no1 (centres undefined) | 15.4%
75 | CN(Cc1ccc(F)cc1)C(=O)NCc1nnc2n1CCC2 | -10.4%
76 | O=C(CN1CCCC1Cn1cncn1)NCCc1c(F)cccc1F (centres undefined) | 27.9%
77 | Cc1nc(NC(=O)OC(C)(C)C)sc1C(=O)O | 21.2%
78 | O=C(Nc1cccnc1)C1Cc2nc(-c3ccsc3)sc2N1CC1CC1 (centres undefined) | 15.3%
79 | CCOc1ccc(NC(C)=O)cc1S(=O)(=O)Nc1ccon1 | 4.6%
80 | COc1ccc(CNC(Cc2ccsc2)c2ncccc2C)cc1OC (centres undefined) | -4.5%
81 | CC(C)CN1C(=O)C2(CCN(Cc3ccsc3)C2)c2ccccc21 (centres undefined) | -13%
82 | COc1c(CNC2CCN(c3ccccn3)CC2)c(C(C)C)nn1C | 5.04%
83 | Cc1nnc(CN(C)CCc2nc(-c3cccc(Cl)c3)no2)n1C | -13.1%
84 | CC(C)CCN1C2(CCN(Cc3nccs3)C2)c2ccccc2S1(=O)=O (centres undefined) | -11.4%
85 | Cn1cc(CN2CCN(Cc3nccn3C)CC2)cn1 | 29.1%
86 | CN(C)c1ccc(C(=O)Nc2cnn(Cc3ccccn3)c2)cc1 | -9.41%
87 | CN(C)CCNc1cc(-c2ncccc2Cl)c2cc[nH]c2n1 | 1.89%
88 | COc1ccccc1N1CCC(NCc2c(C)noc2C)C1 (centres undefined) | 30%
89 | O=S(=O)(N(Cc1ccccn1)C1CC1)N1CCCC1c1ccco1 (centres undefined) | -8.96%
90 | O=C(CCc1nc(Cl)n[nH]1)NC1CCCN(CC2CCCCC2)C1 (centres undefined) | 0.564%
91 | O=C1CCC2(CCCN(Cc3ccccc3F)C2)N1CC1CC1 (centres undefined) | -2.34%
92 | Cc1cc(F)ccc1NS(=O)(=O)c1cc2c(c(C(=O)O)c1)OCCO2 | -4.92%

Row | SMILES | cytotoxicity at 70.5 h
93 | O=C(NCCc1nc(-c2cccnc2)no1)c1ccc(C2CCCO2)s1 (centres undefined) | 6.34%
94 | CCN1C(=O)CC(c2cnn(C)c2)C12CCN(C(=O)C1CC=CC1)CC2 (centres undefined) | 0.244%
95 | CC(C)C(C(=O)NCC1CC1)n1cnc2cc(F)c(F)cc21 (centres undefined) | -1.42%
96 | Cc1n[nH]c(C)c1CCC(=O)NCC1CCOc2ccccc2C1 (centres undefined) | 12.2%
97 | CCN(CC)c1ncnc2c1CCN(CC1CCOCC1)CC2 | -16.3%
98 | CN1CCN(CCCNC(=O)c2nc3ccccc3c(=O)[nH]2)CC1 | -19.4%
99 | O=C(CCCc1cccs1)N1CCC(N2CCNC2=O)CC1 | 22.1%
100 | COCCn1ccc2ccc(C(=O)O)cc21 | -9.99%
101 | Cc1cc(NC(=O)CN2CCN(c3nccs3)C(C)C2)n(C)n1 (centres undefined) | -7.64%
102 | O=C1NC2(CCc3ccccc31)CCN(C(=O)c1cccnc1)C2 (centres undefined) | -13%
103 | N#CC1(C(=O)NCCCNc2ccc(C(F)(F)F)cn2)CCCC1 | 5.77%
104 | Cc1noc([C@]23COC[C@H]2CN(S(=O)(=O)N(C)C)C3)n1 | -1.88%
105 | COCCN1C[C@H]2CC[C@@H]1CN(C(=O)c1ccc(Cl)cc1)C2 | -6%
106 | CCOCCN1CCN(CC(=O)N2CCC2)CC1CC (centres undefined) | -7.02%
107 | CC(C)Oc1ccc(CNC(=O)CC(F)(F)F)cc1F | -18%
108 | Cn1c(C2CC2)nc2c1CCN(Cc1nc(-c3ccsc3)no1)C2 | -10.5%
109 | CS(=O)(=O)NCC(=O)NC(Cc1ccccc1)C1CCCC1 (centres undefined) | -4.4%
110 | O=C(c1ccc(Cn2cnnn2)cc1)N1CCC(c2ccncc2)CC1 | -3.04%
111 | CCCC(C)NC(=O)c1ccc(-c2ccco2)[nH]c1=O (centres undefined) | -2.99%
112 | O=C1CO[C@H]2CN(Cc3ccc(F)c(F)c3)C[C@H]2N1 | -12.7%
113 | Cc1ccc(CC(=O)N2CCCC(n3ccnc3C(C)C)C2)cn1 (centres undefined) | -7.44%
114 | Cn1ncc2c1CCCN(C(=O)C1CC1)C2 | 14.3%
